Assay results published in patent EP2308883A1, “New derivatives of thieno[2,3-b]pyridine and 5,6,7,8 tetrahydrothieno[2,3 b]quinoline in particular useful in the treatment of malaria” (priority 2009, dated 2011).

Experiments:
[1] = molecular target: Mammalian GSK-3 (GSK-3α/β); test: Kinase assay with native porcine GSK3 purified from porcine brain, GS-1 peptide and [γ-33P] ATP; format: biochemical; settings: for IC50: -(10) taken as no inhibition at 10, read-out: IC50 Mammalian GSK-3; for anti-mammalian GSK-3 IC50 values: result in words
Description: Porcine GSK3 (GSK-3α/β) was purified from porcine brain by affinity chromatography on immobilized axin according to the protocol described in Primot et al (Protein Expression and Purification 20, 394-404, 2000).
(§1) Both porcine GSK3 and PfGSK3 were assayed with 40 µM GS-1 peptide, a specific GSK-3 substrate, ([…]pEDEEE, synthesized by the Peptide Synthesis Unit, Institute of Biomolecular Sciences, University of Southampton, U.K.), in buffer A (25 mM Tris-HCl pH 7.5, 10 mM MgC12, 1 mM EGTA, 1 mM DTT, 50 µg heparin/ml, 0.5 mg BSA/ml) in the presence of 15 µM [γ-^33P] ATP (3000 Ci/mmol; 1 mCi/ml) in a final volume of 30 µl. After 30 min. incubation at 30°C, 25 µl aliquots of supernatant were spotted onto 2.5 x 3 cm pieces of Whatman P81 phosphocellulose paper, and, 20 sec. later, the filters were washed five times (for at least 5 min. each time) in 1 % phosphoric acid. The wet filters were counted in the presence of 1 ml ACS (Amersham) scintillation fluid. The kinase activity was expressed in pmoles phosphate incorporated in GS-1 or in percentage of the maximal activity.

PfGSK-3 = molecular target: T1, PfGSK-3 (Plasmodium falciparum, UniProt O77344); test: Kinase assay with recombinant (His)6-tagged PfGSK3, GS-1 peptide and [γ-33P] ATP; format: biochemical; settings: for anti-PfGSK-3 IC50 values: result in words; for IC50: unit only in the introducing sentence b99, not in the table, read-out: IC50 PfGSK-3
T1 construct: His6; made in house; host or cells: Escherichia coli TOP 10
T1 sequence (O77344 1-440): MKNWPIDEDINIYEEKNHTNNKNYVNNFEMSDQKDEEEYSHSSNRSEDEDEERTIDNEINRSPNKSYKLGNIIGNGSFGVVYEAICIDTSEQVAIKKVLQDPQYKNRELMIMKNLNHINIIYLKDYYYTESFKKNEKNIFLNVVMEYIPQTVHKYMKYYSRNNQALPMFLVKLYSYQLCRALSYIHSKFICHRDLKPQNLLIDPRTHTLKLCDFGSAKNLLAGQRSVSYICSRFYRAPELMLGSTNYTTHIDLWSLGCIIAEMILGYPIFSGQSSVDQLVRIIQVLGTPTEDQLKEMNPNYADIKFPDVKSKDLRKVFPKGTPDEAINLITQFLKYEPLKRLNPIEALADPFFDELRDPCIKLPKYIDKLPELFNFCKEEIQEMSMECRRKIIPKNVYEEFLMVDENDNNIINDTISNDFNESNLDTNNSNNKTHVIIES
Description: Escherichia coli strain (TOP 10) containing a plasmid encoding PfGSK3 with six histidines (pBAD-Thio-TOPO, Invitrogen) were cultured into 500 ml of LB medium containing 100 µg/ml ampicillin, at 37°C, under shaking (250 rpm) until OD600 of 0.5 was reached. Expression was induced with 0.5 ml of 20% arabinose (0.02% final concentration). The culture was grown at 37°C with shaking for 4 hours. Cells were harvested by centrifugation at 9000 rpm for 10 min. The bacterial pellet was stored frozen at -80°C until further processing. For proteins extraction, pellet was resuspended in 10 ml of lysis buffer (50 mM NaH2PO4 pH 8.0, 300 mM NaCl, 10 mM imidazole) with the addition of protease inhibitors (complete EDTA-free, Roche) and lysozyme ([…] final). Cells were disrupted by sonication and the cell lysate was centrifuged at 24000 rpm for 30 min at 4°C. The recombinant PfGSK3 protein was purified by Immobilized Metal Affinity Chromatography according to a batch procedure on 1 ml of Nickel affinity resin (Ni-NTA agarose beads, Qiagen). Beads were washed four times with 10 ml of wash buffer (50 mM NaH2PO4 pH 8.0, 300 mM NaCl, 30 mM imidazole). Protein was eluted with one volume of elution buffer (50 mM NaH2PO4 pH 8.0, 300 mM NaCl, 250 mM imidazole, 10% glycerol).
as §1

IC50 [1] | anti-mammalian GSK-3 IC50 values [1] | anti-PfGSK-3 IC50 values (PfGSK-3) | IC50 (PfGSK-3) | SMILES
> 10000 nM | do not demonstrate good | particularly good | 3800 nM | N#Cc1c(N)nc2sc(C(=O)c3ccc(Cl)c(Cl)c3)c(N)c2c1-c1ccccc1Br [Compound 21, 3,6-diamino-4-(2-bromophenyl)-2-(3,4-dichlorobenzoyl)thieno[2,3-b]pyridine-5-carbonitrile]
> 10000 nM | do not demonstrate good | particularly good | 1700 nM | COc1ccc(C(=O)c2sc3nc(N)c(C#N)c(-c4ccccc4I)c3c2N)cc1 [Compound 11, 3,6-diamino-4-(2-iodophenyl)-2-(4-methoxybenzoyl)thieno[2,3-b]pyridine-5-carbonitrile]
2000 nM | – | – | 510 nM | Cc1ccccc1-c1c(C#N)c(N)nc2sc(C#N)c(N)c12 [Compound 40, 3,6-diamino-4-(2-methylphenyl)thieno[2,3-b]pyridine-2,5-dicarbonitrile]
– | do not demonstrate good | particularly good | – | COc1cccc(C(=O)c2sc3nc(N)c(C#N)c(-c4ccccc4Cl)c3c2N)c1 [Compound 24, 3,6-diamino-4-(2-chlorophenyl)-2-(3-methoxybenzoyl)thieno[2,3-b]pyridine-5-carbonitrile]
2300 nM | – | – | 180 nM | N#Cc1sc2nc(N)c(C#N)c(-c3cccs3)c2c1N [Compound 41, 3,6-diamino-4-(2-thienyl)thieno[2,3-b]pyridine-2,5-dicarbonitrile]
– | do not demonstrate good | particularly good | – | N#Cc1c(N)nc2sc(C(=O)c3ccc(Cl)c(Cl)c3)c(N)c2c1-c1ccccc1Cl [Compound 23, 3,6-diamino-4-(2-chlorophenyl)-2-(3,4-dichlorobenzoyl)thieno[2,3-b]pyridine-5-carbonitrile]
60 nM | – | – | 130 nM | N#Cc1c(N)nc2sc3c(=S)[nH]cnc3c2c1-c1ccccc1Cl [Compound 47, 7-amino-9-(2-chlorophenyl)-4-thioxo-3,4-dihydropyrido[3',2':4,5]thieno[3,2-d]pyrimidine-8-carbonitrile]

The next lines start with the compound.

SMILES | IC50 [1] | anti-mammalian GSK-3 IC50 values [1] | anti-PfGSK-3 IC50 values (PfGSK-3) | IC50 (PfGSK-3)
N#Cc1c(N)nc2sc(C(=O)c3cccc(Cl)c3)c(N)c2c1-c1c(Cl)cccc1Cl [Compound 30, 3,6-diamino-2-(3-chlorobenzoyl)-4-(2,6-dichlorophenyl)thieno[2,3-b]pyridine-5-carbonitrile] | – | do not demonstrate good | particularly good | –
N#Cc1c(N)nc2sc(C(=O)c3cccc(Br)c3)c(N)c2c1-c1ccccc1Cl [Compound 27, 3,6-diamino-2-(3-bromobenzoyl)-4-(2-chlorophenyl)thieno[2,3-b]pyridine-5-carbonitrile] | – | do not demonstrate good | particularly good | –
N#Cc1c(N)nc2sc(C(=O)c3ccccc3)c(N)c2c1-c1ccccc1Br [Compound 18, 3,6-diamino-2-benzoyl-4-(2-bromophenyl)thieno[2,3-b]pyridine-5-carbonitrile] | – | do not demonstrate good | particularly good | –
Cc1ccc(C(=O)c2sc3nc(N)c(C#N)c(-c4ccccc4I)c3c2N)cc1 [Compound 12, 3,6-diamino-4-(2-iodophenyl)-2-(4-methylbenzoyl)thieno[2,3-b]pyridine-5-carbonitrile] | – | do not demonstrate good | particularly good | –
N#Cc1c(N)nc2sc(C(=O)c3cccc(C(F)(F)F)c3)c(N)c2c1-c1ccccc1Cl [Compound 25, 3,6-diamino-4-(2-chlorophenyl)-2-[3-(trifluoromethyl)benzoyl]thieno[2,3-b]pyridine-5-carbonitrile] | – | do not demonstrate good | particularly good | –
COc1ccccc1-c1c(C#N)c(N)nc2sc(C(=O)c3cccc(Cl)c3)c(N)c12 [Compound 7, 3,6-diamino-2-(3-chlorobenzoyl)-4-(2-methoxyphenyl)thieno[2,3-b]pyridine-5-carbonitrile] | – | do not demonstrate good | particularly good | –
